# Data published in PMC6272685, “Docking and Antiherpetic Activity of 2-Aminobenzo[de]-isoquinoline-1,3-diones” (Molecules, 2015).
# “Also recorded” adds a separate entry of the source.
# Legend:
# HSV-2 = test: cytopathic effect inhibition assay against HSV-2 in Vero cells; format: cell-based, herpes simplex virus 2 (G strain); conditions: for HSV-2 EC50: Vero cells, 48 h, cytopathic effect inhibition; for antiviral activity against HSV-2 in words: in comparison with compounds 14–16; for HSV-2 SI: ratio of CC50 to EC50; on activity class in terms of SI-values (HSV-2): key: inactive (SI < 2); active (SI ≥ 2)
# Protocol: (§1) Vero cells (derived from the kidney of a normal African green monkey) were obtained from the American Type Culture Collection (ATCC, Manassas, VA, USA). The viral strains used were GHSV-UL46 for HSV-1 and the G strain for HSV-2. The Vero cells were propagated in Dulbecco’s modified Eagle’s medium (DMEM) supplemented with 10% heat-inactivated foetal bovine serum (FBS), 1% L-glutamine, HEPES buffer and 50 µg/mL gentamycin. All cells were maintained at 37 °C in a humidified atmosphere with 5% CO2 and were subcultured two times a week.
# (§2) The antiviral screening was performed using a cytopathic effect inhibition assay at the Regional Center for Mycology and Biotechnology (RCMB, Al-Azhar University, Cairo, Egypt). This assay was selected to show specific inhibition of a biological function, that is, a cytopathic effect in susceptible mammalian cells. In brief, monolayers of 10,000 Vero cells adhering at the bottom of the wells in a 96-well microtiter plate were incubated for 24 h at 37 °C in a humidified incubator with 5% CO2. The plates were washed with fresh DMEM and challenged with 10^4 doses of herpes simplex 1 or 2 virus, and then the cultures were simultaneously treated with two-fold serial dilutions of the tested compound, starting from 500 µg/mL and going up to about 2 µg/mL (500, 250, 125, 62.5, …, 1.95 µg/mL) in a fresh maintenance medium; following this, they were incubated at 37 °C for 48 h. An infection control, as well as an untreated Vero cell control were made in the absence of tested compounds. […] Antiviral activity was determined by the inhibition of the cytopathic effect compared to a control, that is, the protection offered by the tested compound to the cells was scored. Three independent experiments were assessed, each containing four replicates per treatment.
# (§3) After the incubation period, the media was aspirated, and then the cells were stained with a 1% crystal violet solution for 30 min. Thereafter, all excess stain was removed by rinsing the plates with tap water. The plates were allowed to dry, and then glacial acetic acid (30%) was added to all wells and mixed thoroughly. The absorbance of the plates was measured after gentle shaking on a microplate reader (Tecan Inc., Morrisville, NC, USA), at 590 nm. The viral inhibition rate was calculated as follows: [(ODtv − ODcv)/(ODcd − ODcv)] × 100% where ODtv, ODcv and ODcd indicate the absorbance of the tested compounds with virus-infected cells, the absorbance of the virus control and the absorbance of the cell control, respectively.
# EC50 values were determined directly from the curve obtained by plotting the inhibition of the virus yield against the concentration of the samples. The selectivity index (SI) was calculated from the ratio of CC50 to EC50 in order to determine whether each compound had sufficient antiviral activity that exceeded its level of toxicity. This index is referred to as a therapeutic index, and it was also used to determine whether a compound warranted further study.
# Vero cells = test: cytotoxicity evaluation using viability assay (crystal violet); format: cell-based, African green monkey; conditions: 48 h
# Protocol: as §1
# The Vero cell lines in the cytotoxicity assay were seeded in 96-well plates at a cell concentration of 1 × 10^4 cells per well in 100 µL of the growth medium. Fresh medium containing different concentrations of the tested sample was added after 24 h of seeding. Serial two-fold dilutions of the tested compound were added to confluent cell monolayers dispensed into 96-well, flat-bottomed microtiter plates (Falcon, Jersey, NJ, USA) using a multichannel pipette. The microtiter plates were incubated at 37 °C in a humidified incubator with 5% CO2 for a period of 48 h. Three wells were used for each concentration of the tested sample. Control cells were incubated without test samples and with or without DMSO. The small percentage of DMSO present in the wells (maximal 0.1%) was not found to affect the experiment.
# After the end of the incubation period, the viable cell yield was determined by a colorimetric method. In brief, the process of treatment the media with crystal violet solution and measurement of absorbance at 590 nm using a microplate reader was mentioned above. The absorbance was proportional to the number of surviving cells in the culture plate. All the results were corrected for background absorbance detected in wells without added stain. Treated samples were compared with the cell control in the absence of the tested compounds. All experiments were carried out in triplicate. The cell cytotoxicity effect of each tested compound was calculated.
# Statistics were done using a one-way ANOVA test, and the percentage cell viability was calculated using Microsoft Excel®, as follows: % Cell viability = [(Mean Abscontrol− Mean Abstest metabolite)/Mean Abscontrol] × 100 where Abs equals the absorbance at 590 nm. The CC50 was estimated from graphic plots and the STATA statistical analysis package was used for the drawing of the dose response curve, in order to calculate CC50. Concerning antiviral evaluation, all experiments and data analysis were performed in RCMB, Al-Azhar University, Cairo, Egypt.
# HSV-1 = test: cytopathic effect inhibition assay against HSV-1 in Vero cells; format: cell-based, herpes simplex virus 1 (GHSV-UL46); conditions: for HSV-1 EC50: Vero cells, 48 h, cytopathic effect inhibition; for HSV-1 SI: ratio of CC50 to EC50; for activity class in terms of SI-values (HSV-1): virus not named, agrees with HSV-1 SI of Table 2; for antiviral activity against HSV-1 in words: in comparison with compounds 14–16; on activity class in terms of SI-values (HSV-1): key: inactive (SI < 2); active (SI ≥ 2)
# Protocol: as §1, §2, §3
# EC50 values were determined directly from the curve obtained by plotting the inhibition of the virus yield against the concentration of the samples. […] This index is referred to as a therapeutic index, and it was also used to determine whether a compound warranted further study.
SMILES,HSV-2 EC50 (HSV-2) [µg/mL],CC50 (Vero cells) [µg/mL],HSV-1 EC50 (HSV-1) [µg/mL],HSV-1 SI (HSV-1),antiviral activity against HSV-2 in words (HSV-2),HSV-2 SI (HSV-2),activity class in terms of SI-values (HSV-1) (HSV-1),antiviral activity against HSV-1 in words (HSV-1),activity class in terms of SI-values (HSV-2) (HSV-2)
CC=NN1C(=O)c2cccc3cccc(c23)C1=O [Compound 1],>500,375 ± 25,>500,–,–,–,–,–,–
CCC=NN1C(=O)c2cccc3cccc(c23)C1=O [Compound 2],>500,317 ± 13,>500,–,–,–,–,–,–
O=C1c2cccc3cccc(c23)C(=O)N1N=Cc1ccccc1 [Compound 3],>500,196 ± 22,158 ± 1.8,1.2,–,–,–,–,–
COc1ccccc1C=NN1C(=O)c2cccc3cccc(c23)C1=O [Compound 4],312 ± 9.6,486 ± 18,189 ± 3.2,2.6,low activity,1.6,active,–,–
COc1cccc(C=NN2C(=O)c3cccc4cccc(c34)C2=O)c1 [Compound 5],>500,452 ± 9,176 ± 4.6,2.6,–,–,active,low activity,–
O=C1c2cccc3cccc(c23)C(=O)N1N=Cc1cccc([N+](=O)[O-])c1 [Compound 6],>500,316 ± 11,174 ± 1.8,1.8,–,–,–,low activity,–
O=C1c2cccc3cccc(c23)C(=O)N1N=Cc1ccc(O)cc1 [Compound 7],220 ± 3.8,412 ± 24,113 ± 4.6,3.6,low activity,1.9,active,good antiviral effect,–
CN(C)c1ccc(C=NN2C(=O)c3cccc4cccc(c34)C2=O)cc1 [Compound 8],>500,289 ± 13,>500,–,–,–,–,–,–
COc1cc(C=NN2C(=O)c3cccc4cccc(c34)C2=O)ccc1O [Compound 9],108 ± 4.1,236 ± 8,78.3 ± 1.5,3.0,–,2.2,active,good antiviral effect,active
COc1ccc(C=NN2C(=O)c3cccc4cccc(c34)C2=O)c(OC)c1 [Compound 10],416 ± 8.2,380 ± 16,149 ± 5.3,2.6,low activity,0.9,active,low activity,–
O=C1c2cccc3cccc(c23)C(=O)N1N=Cc1ccc(Cl)cc1Cl [Compound 11],>500,316 ± 24,>500,–,–,–,–,–,–
O=C1c2cccc3cccc(c23)C(=O)N1N=Cc1cccnc1 [Compound 13],308 ± 7.1,458 ± 27,117.2 ± 3.1,3.9,low activity,1.5,active,–,–
O=C1c2cccc3cccc(c23)C(=O)N1N=Cc1ccco1 [Compound 14],71.8 ± 1.8,321 ± 23,19.6 ± 0.9,16.4,–,4.5,–,most active; also recorded: highest effects,active
O=C1c2cccc3cccc(c23)C(=O)N1N=Cc1ccsc1 [Compound 15],56.7 ± 2.6,180 ± 8,16.2 ± 1.1,11.1,–,3.2,–,most active; also recorded: highest effects,active
C=CCNC(=S)NN1C(=O)c2cccc3cccc(c23)C1=O [Compound 16],292 ± 4.8,96 ± 12,17.8 ± 1.4,5.4,–,0.3,active,highest effects,–
O=C1c2cccc3cccc(c23)C(=O)N1NC(=S)Nc1ccccc1 [Compound 17],>500,518 ± 34,236 ± 4.9,2.2,–,–,active,low activity,–
O=C1c2cccc3cccc(c23)C(=O)N1NC(=S)NC1CCCCC1 [Compound 18],>500,482 ± 14,319 ± 3.7,1.5,–,–,–,low activity,–
O=C1CCC(=O)N1N1C(=O)c2cccc3cccc(c23)C1=O [Compound 19],>500,220 ± 16,>500,–,–,–,–,–,–
